According to ChEMBL document CHEMBL1141262, “Cytotoxic diterpenoids from the hybrid soft coral Sinularia maxima x Sinularia polydactyla” (2007):

Experiments:
Type in all cases: functional
DU-145 = experiment: Cytotoxicity against human DU145 cells after 72 hrs; conditions: for CC50: read-out: LC50 (the source's name)
LNCaP = experiment: Cytotoxicity against human LNcaP cells after 72 hrs; conditions: for CC50: read-out: LC50 (the source's name)
[1] = Cytotoxicity against human IGROV cells after 72 hrs; conditions: for CC50: read-out: LC50 (the source's name)
[2] = Cytotoxicity against ET-743 resistant human IGROV cells after 72 hrs
SK-BR-3 = experiment: Cytotoxicity against human SK-BR3 cells after 72 hrs; conditions: for CC50: read-out: LC50 (the source's name)
A549 = experiment: Cytotoxicity against human A549 cells after 72 hrs
K562 = experiment: Cytotoxicity against human K562 cells after 72 hrs; conditions: for CC50: read-out: LC50 (the source's name)
PANC-1 = experiment: Cytotoxicity against human PANC1 cells after 72 hrs; conditions: for CC50: read-out: LC50 (the source's name)
HT-29 = experiment: Cytotoxicity against human HT29 cells after 72 hrs
LoVo [3] = experiment: Cytotoxicity against human LoVo cells after 72 hrs; conditions: for CC50: read-out: LC50 (the source's name)
LoVo [4] = experiment: Cytotoxicity against doxorubicin resistant human LoVo cells after 72 hrs
HeLa [5] = experiment: Cytotoxicity against human HeLa cells after 72 hrs; conditions: for CC50: read-out: LC50 (the source's name)
HeLa [6] = experiment: Cytotoxicity against aplidine resistant human HeLa cells after 72 hrs; conditions: for CC50: read-out: LC50 (the source's name)
SK-MEL-28 = experiment: Cytotoxicity against human SK-MEL-28 cells after 72 hrs

For `C=C(C)[C@H]1C/C2=C(\C(=O)OC)[C@@H]3O[C@@](C)(CC3=O)C[C@@H]3C=C(C(=O)O3)[C@H](C1)O2`, the GI50 (DU-145; Homo sapiens, DU-145, 72 h) was 4.35 µM, the TGI (DU-145; Homo sapiens, DU-145, 72 h) was 8.32 µM and the CC50 (DU-145; Homo sapiens, DU-145, 72 h) was 15.9 µM. The GI50 (LNCaP) was 5.05 µM, the TGI (LNCaP) was 8.96 µM and the CC50 (LNCaP) was 15.9 µM. For the same compound, the GI50 ([1]; Homo sapiens, IGROV, 72 h) was 4.05 µM, the TGI ([1]; Homo sapiens, IGROV, 72 h) was 7.68 µM and the CC50 ([1]; Homo sapiens, IGROV, 72 h) was 14.6 µM. It also gave a GI50 ([2]; Homo sapiens, IGROV, 72 h) of 4.56 µM, an LC50 (50% lethal concentration) ([2]; Homo sapiens, IGROV, 72 h) of 16.5 µM and a TGI ([2]; Homo sapiens, IGROV, 72 h) of 8.68 µM. The GI50 (SK-BR-3; Homo sapiens, SK-BR-3, 72 h) was 6.4 µM, the TGI (SK-BR-3; Homo sapiens, SK-BR-3, 72 h) was 11.4 µM and the CC50 (SK-BR-3; Homo sapiens, SK-BR-3, 72 h) was 20.3 µM. The GI50 (A549; Homo sapiens, A549, 72 h) was 5.56 µM, the LC50 (A549; Homo sapiens, A549, 72 h) was 25.6 µM and the TGI (A549; Homo sapiens, A549, 72 h) was 11.9 µM. For the same compound, the GI50 (K562; Homo sapiens, K562, 72 h) was 5.58 µM, the TGI (K562; Homo sapiens, K562, 72 h) was 8.89 µM and the CC50 (K562; Homo sapiens, K562, 72 h) was 14.2 µM. For the same compound, the GI50 (PANC-1; Homo sapiens, PANC-1, 72 h) was 3.64 µM, the TGI (PANC-1; Homo sapiens, PANC-1, 72 h) was 7.15 µM and the CC50 (PANC-1; Homo sapiens, PANC-1, 72 h) was 14.1 µM. The GI50 (HT-29; Homo sapiens, HT-29, 72 h) was 6.48 µM, the LC50 (concentration killing 50% of cells) (HT-29; Homo sapiens, HT-29, 72 h) was greater than 25.6 µM and the TGI (HT-29; Homo sapiens, HT-29, 72 h) was 15.4 µM. The GI50 (LoVo [3]; Homo sapiens, LoVo, 72 h) was 3.41 µM, the TGI (LoVo [3]; Homo sapiens, LoVo, 72 h) was 6.61 µM and the CC50 (LoVo [3]; Homo sapiens, LoVo, 72 h) was 12.8 µM. The GI50 (LoVo [4]; Homo sapiens, LoVo, 72 h) was 5.66 µM, the LC50 (LoVo [4]; Homo sapiens, LoVo, 72 h) was greater than 25.6 µM and the TGI (LoVo [4]; Homo sapiens, LoVo, 72 h) was 16.5 µM. The GI50 (HeLa [5]; Homo sapiens, HeLa, 72 h) was 4.38 µM, the TGI (HeLa [5]; Homo sapiens, HeLa, 72 h) was 8.04 µM and the CC50 (HeLa [5]; Homo sapiens, HeLa, 72 h) was 14.8 µM. For the same compound, the GI50 (HeLa [6]; Homo sapiens, HeLa, 72 h) was 3.77 µM, the TGI (HeLa [6]; Homo sapiens, HeLa, 72 h) was 7.5 µM and the CC50 (HeLa [6]; Homo sapiens, HeLa, 72 h) was 15 µM. For the same compound, the GI50 (SK-MEL-28; Homo sapiens, SK-MEL-28, 72 h) was 4.25 µM, the LC50 (SK-MEL-28; Homo sapiens, SK-MEL-28, 72 h) was 13.6 µM and the TGI (SK-MEL-28; Homo sapiens, SK-MEL-28, 72 h) was 7.61 µM.

With `C=C(C)[C@H]1C/C2=C(\C(=O)OC)C(OC(C)CC)C(=O)/C=C(\C)C[C@@H]3C=C(C(=O)O3)[C@H](C1)O2` (stereo in doubt; 3) the GI50 (DU-145) was 1.95 µM, the TGI (DU-145; Homo sapiens, DU-145, 72 h) was 5.31 µM and the CC50 (DU-145; Homo sapiens, DU-145, 72 h) was 13.5 µM. It also gave a GI50 (LNCaP) of 1.69 µM, a TGI (LNCaP) of 5.17 µM and a CC50 (LNCaP) of 14.3 µM. It also gave a GI50 [1] of 0.52 µM, a TGI [1] of 1.1 µM and a CC50 [1] of 3.3 µM. For the same compound, the GI50 [2] was 1.03 µM, the TGI [2] was 3.64 µM and the LC50 (50% lethal concentration) ([2]; Homo sapiens, IGROV, 72 h) was 20.4 µM. The GI50 (SK-BR-3) was 0.039 µM, the TGI (SK-BR-3) was 0.28 µM and the CC50 (SK-BR-3; Homo sapiens, SK-BR-3, 72 h) was greater than 22.5 µM. For the same compound, the GI50 (A549) was 1.32 µM, the TGI (A549) was 4.59 µM and the LC50 (A549; Homo sapiens, A549, 72 h) was 16.3 µM. The GI50 (K562) was 1.21 µM, the TGI (K562) was 2.47 µM and the CC50 (K562; Homo sapiens, K562, 72 h) was 10.6 µM. The GI50 (PANC-1) was 0.58 µM, the TGI (PANC-1) was 1.57 µM and the CC50 (PANC-1) was 7.4 µM. The GI50 (HT-29) was 1.47 µM, the TGI (HT-29) was 4.14 µM and the LC50 (concentration killing 50% of cells) (HT-29; Homo sapiens, HT-29, 72 h) was 11.1 µM. It also gave a GI50 (LoVo [3]) of 0.51 µM, a TGI (LoVo [3]) of 1.16 µM and a CC50 (LoVo [3]) of 3.8 µM. The GI50 (LoVo [4]) was 0.75 µM, the LC50 (LoVo [4]; Homo sapiens, LoVo, 72 h) was 13.8 µM and the TGI (LoVo [4]; Homo sapiens, LoVo, 72 h) was 2.72 µM. For the same compound, the GI50 (HeLa [5]) was 0.48 µM, the TGI (HeLa [5]) was 0.93 µM and the CC50 (HeLa [5]) was 1.8 µM. It also gave a GI50 (HeLa [6]) of 0.56 µM, a TGI (HeLa [6]) of 1.31 µM and a CC50 (HeLa [6]) of 5.26 µM. It also gave a GI50 (SK-MEL-28) of 0.54 µM, an LC50 (SK-MEL-28) of 2.13 µM and a TGI (SK-MEL-28) of 1.08 µM.

In the case of `C=C(C)[C@H]1C/C2=C(\C(=O)OC)C(OC(C)CC)C(=O)/C=C(\C)C[C@@H]3C=C(C(=O)O3)[C@H](C1)O2` (stereo in doubt; 2), the GI50 (DU-145) is reported as 3.98 µM, the TGI (DU-145) is reported as 7.56 µM and the CC50 (DU-145) is reported as 14.4 µM. It also gave a GI50 [1] of 3.4 µM, a TGI [1] of 6.91 µM and a CC50 [1] of 14.1 µM. It also gave a GI50 [2] of 3.96 µM, an LC50 (50% lethal concentration) [2] of 15.8 µM and a TGI [2] of 7.92 µM. It also gave a GI50 (SK-BR-3) of 0.58 µM, a TGI (SK-BR-3) of 1.43 µM and a GI50 (A549) of 5.85 µM. For the same compound, the LC50 (A549) was greater than 22.5 µM, the TGI (A549) was 12.3 µM and the GI50 (K562) was 5.26 µM. For the same compound, the TGI (K562) was 9.45 µM, the CC50 (K562) was 17 µM and the GI50 (PANC-1) was 2.9 µM. For the same compound, the TGI (PANC-1) was 6.91 µM, the CC50 (PANC-1) was 16.5 µM and the GI50 (HT-29) was 4.93 µM. It also gave an LC50 (concentration killing 50% of cells) (HT-29) of 18.5 µM, a TGI (HT-29) of 9.54 µM and a GI50 (LoVo [3]) of 3.46 µM. It also gave a TGI (LoVo [3]) of 7.49 µM, a CC50 (LoVo [3]) of 16.2 µM and a GI50 (LoVo [4]) of 1.87 µM. The LC50 (LoVo [4]) was 11.9 µM, the TGI (LoVo [4]) was 4.95 µM and the GI50 (HeLa [5]) was 3.33 µM. The TGI (HeLa [5]) was 7.29 µM, the CC50 (HeLa [5]) was 16 µM and the GI50 (HeLa [6]) was 3.17 µM. For the same compound, the TGI (HeLa [6]) was 8.5 µM, the CC50 (HeLa [6]) was 22.5 µM and the GI50 (SK-MEL-28) was 3.13 µM. It also gave an LC50 (SK-MEL-28) of 13.5 µM and a TGI (SK-MEL-28) of 6.5 µM.
